Series [1] deals with Mus musculus. Kind of series: (§1) Toxicity in NCr nu/nu mouse assessed as body weight loss administered for 3 days per week measured after 6 weeks. The conditions noted are these: in vivo, 1008 h. It counts as organism-based.
Series [2] has as its system COLO 205. Kind of series: Antitumor activity against human COLO205 cells xenografted in athymic NIH-II mouse assessed as decrease in tumor growth rate at 10 mg/kg, ip administered 3 days per week relative to control. It counts as functional, organism-based. Set-up: dose 10 mg/kg. For orientation: A xenograft is tissue or cells of one species grown in another, often human tumour cells in immunodeficient mice.

In series [3] the test system is COLO 205. Briefly: Antiangiogenic activity in human COLO205 cells xenografted in athymic NIH-II mouse at 10 mg/kg, ip administered 3 days per week by hematoxylin and eosin staining relative to control. Set-up: dose 10 mg/kg. It counts as functional, organism-based.
Series [4] concerns COLO 205. Kind of series: Antimetastatic activity against human COLO205 cells xenografted in athymic NIH-II mouse at 10 mg/kg, ip administered for 3 days per week by hematoxylin and eosin staining. It counts as functional, organism-based. Details: dose 10 mg/kg.
The target in series [5] is T1, Platelet-derived growth factor receptor beta (Homo sapiens, UniProt P09619).
Series [6] concerns the target T2, Vascular endothelial growth factor receptor 2 (Homo sapiens, UniProt P35968).
The target in series [7] is T3, Vascular endothelial growth factor receptor 1 (Homo sapiens, UniProt P17948).
For series [8], the target named is T1, Platelet-derived growth factor receptor beta. Briefly: Inhibition of PDGFBB-induced PDGFRbeta autophosphorylation in human SF539 cells incubated for 60 mins prior to PDGFBB-induction measured after 10 mins by phosphotyrosine ELISA. It counts as cell-based, SF-539.
Series [9] addresses T2, Vascular endothelial growth factor receptor 2. The source holds these as a separate data set.
In series [10] the target is T3, Vascular endothelial growth factor receptor 1. The source holds these as a separate data set.
Series [11] addresses Epidermal growth factor receptor (Homo sapiens, UniProt P00533).
Series [12] is described as follows: as §1. The conditions noted are these: NCr nu/nu, in vivo. It counts as organism-based.
Series [13] concerns COLO 205. Briefly: Antitumor activity against human COLO205 cells xenografted in athymic NIH-II mouse assessed as decrease in tumor growth rate at 35 mg/kg, ip administered 3 days per week relative to control. It counts as functional, organism-based. Details: dose 35 mg/kg.
In series [14] the test system is COLO 205. Kind of series: Antiangiogenic activity in human COLO205 cells xenografted in athymic NIH-II mouse at 35 mg/kg, ip administered 3 days per week by hematoxylin and eosin staining relative to control. It counts as functional, organism-based. Details: dose 35 mg/kg.
The test system of series [15] is COLO 205. Kind of series: Antimetastatic activity against human COLO205 cells xenografted in athymic NIH-II mouse at 35 mg/kg, ip administered for 3 days per week by hematoxylin and eosin staining. It counts as functional, organism-based. Details: dose 35 mg/kg.

pIC50: −log10 of the molar value. Activity calls are given as the source filed them. The rule behind the calls is not given here.

T1 sequence (P09619 whole entry): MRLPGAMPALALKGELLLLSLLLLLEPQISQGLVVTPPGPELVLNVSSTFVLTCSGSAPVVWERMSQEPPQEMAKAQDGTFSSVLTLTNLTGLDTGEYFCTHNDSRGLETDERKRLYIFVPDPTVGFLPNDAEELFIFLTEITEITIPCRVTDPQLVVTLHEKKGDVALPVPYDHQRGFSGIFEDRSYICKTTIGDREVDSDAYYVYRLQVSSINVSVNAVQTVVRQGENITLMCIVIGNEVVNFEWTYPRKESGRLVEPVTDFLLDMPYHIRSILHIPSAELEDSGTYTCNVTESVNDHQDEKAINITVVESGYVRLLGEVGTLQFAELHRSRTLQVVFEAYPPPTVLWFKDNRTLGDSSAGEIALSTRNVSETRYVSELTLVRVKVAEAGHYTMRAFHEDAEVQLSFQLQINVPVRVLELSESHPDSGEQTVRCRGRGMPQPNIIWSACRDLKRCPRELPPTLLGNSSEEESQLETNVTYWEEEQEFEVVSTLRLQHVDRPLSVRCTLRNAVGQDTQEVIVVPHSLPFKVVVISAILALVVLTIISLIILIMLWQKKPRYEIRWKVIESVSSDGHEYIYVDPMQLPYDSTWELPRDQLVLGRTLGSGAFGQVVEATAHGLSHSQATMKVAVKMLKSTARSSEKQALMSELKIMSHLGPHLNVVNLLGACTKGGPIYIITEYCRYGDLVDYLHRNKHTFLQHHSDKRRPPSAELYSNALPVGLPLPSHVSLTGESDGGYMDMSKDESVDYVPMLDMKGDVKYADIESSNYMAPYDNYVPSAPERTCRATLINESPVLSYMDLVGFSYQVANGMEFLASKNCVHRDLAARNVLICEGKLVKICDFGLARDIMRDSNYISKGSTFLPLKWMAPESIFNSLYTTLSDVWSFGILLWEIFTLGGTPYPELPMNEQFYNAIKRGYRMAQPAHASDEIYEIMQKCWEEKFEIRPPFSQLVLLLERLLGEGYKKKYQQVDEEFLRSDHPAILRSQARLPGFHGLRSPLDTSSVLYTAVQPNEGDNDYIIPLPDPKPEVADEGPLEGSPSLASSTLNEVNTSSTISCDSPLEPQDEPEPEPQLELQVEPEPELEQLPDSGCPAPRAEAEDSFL
T3 sequence (P17948 whole entry): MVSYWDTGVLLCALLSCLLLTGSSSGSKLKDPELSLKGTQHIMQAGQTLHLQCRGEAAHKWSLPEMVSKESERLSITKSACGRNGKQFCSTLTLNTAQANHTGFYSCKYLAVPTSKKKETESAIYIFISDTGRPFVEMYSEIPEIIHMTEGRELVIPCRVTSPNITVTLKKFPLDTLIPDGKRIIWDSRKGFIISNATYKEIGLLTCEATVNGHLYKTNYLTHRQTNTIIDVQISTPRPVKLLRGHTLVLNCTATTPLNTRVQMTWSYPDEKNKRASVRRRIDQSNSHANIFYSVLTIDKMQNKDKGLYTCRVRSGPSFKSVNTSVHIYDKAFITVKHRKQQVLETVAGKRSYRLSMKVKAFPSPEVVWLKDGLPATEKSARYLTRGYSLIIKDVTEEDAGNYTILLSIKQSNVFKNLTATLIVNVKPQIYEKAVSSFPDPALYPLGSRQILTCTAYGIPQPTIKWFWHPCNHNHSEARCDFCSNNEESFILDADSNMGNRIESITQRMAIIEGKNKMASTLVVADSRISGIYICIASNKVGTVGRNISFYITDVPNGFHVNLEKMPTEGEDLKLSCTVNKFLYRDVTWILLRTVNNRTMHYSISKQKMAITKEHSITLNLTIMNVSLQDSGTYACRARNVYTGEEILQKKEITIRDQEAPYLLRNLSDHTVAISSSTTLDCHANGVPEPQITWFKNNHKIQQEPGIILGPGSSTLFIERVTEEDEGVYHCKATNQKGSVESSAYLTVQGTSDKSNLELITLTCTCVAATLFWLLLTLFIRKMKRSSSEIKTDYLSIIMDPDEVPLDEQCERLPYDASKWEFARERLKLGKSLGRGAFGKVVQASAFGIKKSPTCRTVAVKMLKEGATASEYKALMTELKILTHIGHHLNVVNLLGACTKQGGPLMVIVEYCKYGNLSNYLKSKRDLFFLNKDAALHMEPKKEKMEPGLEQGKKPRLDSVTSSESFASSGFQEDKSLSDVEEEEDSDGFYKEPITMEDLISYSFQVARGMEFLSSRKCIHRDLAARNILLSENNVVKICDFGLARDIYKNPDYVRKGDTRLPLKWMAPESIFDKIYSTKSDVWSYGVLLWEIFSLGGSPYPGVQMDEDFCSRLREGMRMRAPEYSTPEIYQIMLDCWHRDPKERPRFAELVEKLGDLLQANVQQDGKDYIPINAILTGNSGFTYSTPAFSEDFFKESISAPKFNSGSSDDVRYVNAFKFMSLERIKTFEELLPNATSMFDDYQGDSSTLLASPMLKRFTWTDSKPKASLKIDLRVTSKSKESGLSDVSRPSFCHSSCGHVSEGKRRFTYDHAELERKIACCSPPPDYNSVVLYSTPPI
Sequence of Epidermal growth factor receptor (P00533 whole entry): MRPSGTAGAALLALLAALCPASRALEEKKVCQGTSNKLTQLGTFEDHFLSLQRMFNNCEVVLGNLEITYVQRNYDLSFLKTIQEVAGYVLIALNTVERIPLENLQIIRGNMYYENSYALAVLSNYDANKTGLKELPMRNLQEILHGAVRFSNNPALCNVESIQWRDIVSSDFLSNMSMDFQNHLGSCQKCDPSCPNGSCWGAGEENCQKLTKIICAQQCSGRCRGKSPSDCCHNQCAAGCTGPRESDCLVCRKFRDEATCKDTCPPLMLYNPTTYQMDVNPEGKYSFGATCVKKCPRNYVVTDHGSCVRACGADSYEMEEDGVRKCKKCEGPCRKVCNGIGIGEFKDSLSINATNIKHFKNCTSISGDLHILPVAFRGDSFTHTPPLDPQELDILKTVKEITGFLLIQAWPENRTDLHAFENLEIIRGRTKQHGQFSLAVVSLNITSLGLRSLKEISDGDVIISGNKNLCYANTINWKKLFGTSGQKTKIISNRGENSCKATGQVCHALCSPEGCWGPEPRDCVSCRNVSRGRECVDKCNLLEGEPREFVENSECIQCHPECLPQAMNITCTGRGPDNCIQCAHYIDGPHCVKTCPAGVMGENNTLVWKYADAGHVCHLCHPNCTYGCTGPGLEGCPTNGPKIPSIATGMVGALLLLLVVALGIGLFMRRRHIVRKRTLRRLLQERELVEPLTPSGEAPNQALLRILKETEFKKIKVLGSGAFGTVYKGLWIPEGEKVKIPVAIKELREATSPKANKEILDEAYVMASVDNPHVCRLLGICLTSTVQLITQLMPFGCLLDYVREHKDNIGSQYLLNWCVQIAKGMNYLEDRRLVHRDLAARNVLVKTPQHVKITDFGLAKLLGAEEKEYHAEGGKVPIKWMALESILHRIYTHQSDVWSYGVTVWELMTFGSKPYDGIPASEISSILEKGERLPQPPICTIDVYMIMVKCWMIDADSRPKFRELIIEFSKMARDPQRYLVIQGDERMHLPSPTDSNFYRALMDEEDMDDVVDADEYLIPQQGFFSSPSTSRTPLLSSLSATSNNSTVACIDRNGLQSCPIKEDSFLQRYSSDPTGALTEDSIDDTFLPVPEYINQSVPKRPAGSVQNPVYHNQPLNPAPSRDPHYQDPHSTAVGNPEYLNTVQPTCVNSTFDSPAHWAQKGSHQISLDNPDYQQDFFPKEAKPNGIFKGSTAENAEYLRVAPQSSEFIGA
T2 sequence (P35968 whole entry): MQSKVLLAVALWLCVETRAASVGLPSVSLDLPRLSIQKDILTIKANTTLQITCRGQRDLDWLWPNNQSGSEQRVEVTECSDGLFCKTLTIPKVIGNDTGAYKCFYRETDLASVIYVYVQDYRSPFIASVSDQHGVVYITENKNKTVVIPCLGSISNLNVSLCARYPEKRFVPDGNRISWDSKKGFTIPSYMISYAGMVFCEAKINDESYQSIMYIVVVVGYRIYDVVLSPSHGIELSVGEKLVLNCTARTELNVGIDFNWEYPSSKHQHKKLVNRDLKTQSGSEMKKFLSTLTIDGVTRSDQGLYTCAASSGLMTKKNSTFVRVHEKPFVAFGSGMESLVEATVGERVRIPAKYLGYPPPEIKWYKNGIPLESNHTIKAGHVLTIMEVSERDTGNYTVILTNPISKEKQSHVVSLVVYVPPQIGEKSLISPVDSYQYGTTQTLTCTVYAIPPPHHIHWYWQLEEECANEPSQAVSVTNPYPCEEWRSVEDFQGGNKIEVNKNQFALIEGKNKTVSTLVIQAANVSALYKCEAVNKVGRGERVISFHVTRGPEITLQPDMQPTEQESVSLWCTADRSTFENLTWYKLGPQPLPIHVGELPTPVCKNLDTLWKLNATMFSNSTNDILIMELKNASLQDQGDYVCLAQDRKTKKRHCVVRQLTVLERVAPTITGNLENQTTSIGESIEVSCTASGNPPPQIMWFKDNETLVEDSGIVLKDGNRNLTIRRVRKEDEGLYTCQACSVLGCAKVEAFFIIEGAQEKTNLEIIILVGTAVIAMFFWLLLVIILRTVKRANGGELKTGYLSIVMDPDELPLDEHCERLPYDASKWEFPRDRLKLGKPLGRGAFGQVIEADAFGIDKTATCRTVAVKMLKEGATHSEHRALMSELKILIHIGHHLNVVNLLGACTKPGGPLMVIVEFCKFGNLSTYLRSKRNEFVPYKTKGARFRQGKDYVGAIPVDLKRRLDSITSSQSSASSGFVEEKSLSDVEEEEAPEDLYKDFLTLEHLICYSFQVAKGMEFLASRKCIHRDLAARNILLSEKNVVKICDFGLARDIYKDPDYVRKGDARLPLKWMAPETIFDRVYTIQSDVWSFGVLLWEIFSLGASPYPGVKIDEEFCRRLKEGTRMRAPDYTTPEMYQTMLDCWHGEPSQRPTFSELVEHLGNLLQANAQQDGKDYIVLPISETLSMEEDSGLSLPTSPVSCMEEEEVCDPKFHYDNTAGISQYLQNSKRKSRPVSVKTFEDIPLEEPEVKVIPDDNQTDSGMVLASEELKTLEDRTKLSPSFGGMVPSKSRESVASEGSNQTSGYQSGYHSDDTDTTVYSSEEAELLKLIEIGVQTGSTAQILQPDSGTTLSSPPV

Turning to `Cc1[nH]c(/C=C2\C(=O)Nc3ccccc32)c(C)c1CCC(=O)O` [ORANTINIB], the MTD in series [1] turned out to be 10 mg/kg. For the same compound, the TGI result in series [2] was “Active”. Moreover, in series [3], the outcome was Active. Moreover, the result in series [4] was inactive.

For the compound `Nc1nc(Nc2cccc(Br)c2)c2cc(Cc3ccc(Cl)cc3)[nH]c2n1`, the pIC50 in series [5] was < 4.30; in series [6], 5.08; in [7], 4.37.

For `Nc1nc(Nc2cccc(Br)c2)c2ccn(Cc3ccc(Cl)cc3Cl)c2n1`, the pIC50 in series [8] was 4.47; in series [9], < 3.70; in series [10] it was 3.86; in series [11], < 3.70.

As for `Nc1nc(Nc2cccc(Br)c2)c2cc(Cc3ccc(Cl)c(Cl)c3)[nH]c2n1`, in series [5], the pIC50 is < 4.30.

For the compound `Nc1nc(Nc2cccc(Br)c2)c2ccn(Cc3ccccc3Cl)c2n1`, the pIC50 in series [8] is 5.82; in series [9] it was 4.75; in series [10], 3.90; in [11], < 3.70. For the same compound, the MTD at 1008 h in series [12] stood at 35 mg/kg. The TGI result in [13] is “Active”. Further, the result in series [14] and in series [15] was Active.

On to `Nc1nc(Nc2cccc(Br)c2)c2ccn(Cc3ccc4ccccc4c3)c2n1`, for which the pIC50 in [8] is 3.67; in [9], 4.64; in series [10] it was 4.29; in series [11] it was < 3.70.

For the compound `COc1ccc(OC)c(Cn2ccc3c(Nc4cccc(Br)c4)nc(N)nc32)c1`, the pIC50 in [9] was < 3.70; in series [10], < 3.70; in series [11], 4.16.

On to `Nc1nc(Nc2cccc(Br)c2)c2ccn(Cc3ccc(Cl)cc3)c2n1`, for which the pIC50 was < 3.30 in series [8], 4.19 in [9], 4.10 in series [10] and 4.00 in series [11].

Consider `COc1cc(Cn2ccc3c(Nc4cccc(Br)c4)nc(N)nc32)cc(OC)c1OC`, for which the pIC50 is 5.74 in series [8], 4.59 in [9], 3.81 in [10] and < 3.70 in [11].

On to `Nc1nc(Nc2cccc(Br)c2)c2ccn(Cc3ccc(-c4ccccc4)cc3)c2n1`, for which the pIC50 in series [8] was 3.89; in [9] it was 4.64; in series [10], < 3.70; in series [11], < 3.70.

On to `Nc1nc(Nc2cccc(Br)c2)c2ccn(Cc3ccccc3)c2n1`, for which the negative logarithm of the IC50 (pIC50) in [8] is < 3.30; in series [9], 4.62; in [10] it was 4.00; in series [11], 3.78.

Consider `Nc1nc(Nc2cccc(Br)c2)c2ccn(Cc3ccc(Cl)c(Cl)c3)c2n1`, for which the pIC50 in [8] is 3.64; in [9] it was 4.19; in series [10] it was 3.93; in [11], < 3.70.

Take `Nc1nc(Nc2cccc(Br)c2)c2ccn(Cc3cccc4ccccc34)c2n1`: the pIC50 in series [8] was 3.89; in series [9], 4.83; in series [10], 3.82; in series [11], < 3.70.

For the compound `Cc1ccccc1Cn1ccc2c(Nc3cccc(Br)c3)nc(N)nc21`, the pIC50 is 3.80 in [8], 3.95 in series [9], 3.89 in series [10] and 3.95 in [11].

The term pIC50 denotes −log10 of the IC50, conventionally taken in molar units. Read a low pIC50 as a large IC50.

Values taken from ChEMBL document CHEMBL1955729, “N⁴-(3-Bromophenyl)-7-(substituted benzyl) pyrrolo[2,3-d]pyrimidines as potent multiple receptor tyrosine kinase inhibitors: design, synthesis, and in vivo evaluation” (Bioorg Med Chem, 2012).
